# What was measured:
# [1] = biological target: T1, Transient receptor potential cation channel subfamily V member 1 (Rattus norvegicus, UniProt O35433); experiment: Agonist activity at rat TRPV1 expressed in CHO cells assessed as maximal calcium uptake; type: functional, cell-based
# [2] = biological target: T1, Transient receptor potential cation channel subfamily V member 1; experiment: Displacement of [3H]RTX from rat TRPV1 expressed in CHO cells; type: cell-based
# [3] = biological target: Transient receptor potential cation channel subfamily V member 1 (Rattus norvegicus) (UniProt O35433); experiment: Agonist activity at rat TRPV1 expressed in CHO cells assessed as maximal calcium uptake relative to capsaicin; type: functional, cell-based
# [4] = biological target: Transient receptor potential cation channel subfamily V member 1 (Rattus norvegicus) (UniProt O35433); experiment: (§1) Antagonist activity at rat TRPV1 expressed in CHO cells assessed as inhibition of calcium uptake; type: functional, cell-based; set-up: concentration or dose not given beside the values; details: concentration not given here
# [5] = biological target: T1, Transient receptor potential cation channel subfamily V member 1; experiment: as §1; type: functional, cell-based
# Transient receptor potential cation channel subfamily V member 1 (Rattus norvegicus), sequence (O35433 whole entry): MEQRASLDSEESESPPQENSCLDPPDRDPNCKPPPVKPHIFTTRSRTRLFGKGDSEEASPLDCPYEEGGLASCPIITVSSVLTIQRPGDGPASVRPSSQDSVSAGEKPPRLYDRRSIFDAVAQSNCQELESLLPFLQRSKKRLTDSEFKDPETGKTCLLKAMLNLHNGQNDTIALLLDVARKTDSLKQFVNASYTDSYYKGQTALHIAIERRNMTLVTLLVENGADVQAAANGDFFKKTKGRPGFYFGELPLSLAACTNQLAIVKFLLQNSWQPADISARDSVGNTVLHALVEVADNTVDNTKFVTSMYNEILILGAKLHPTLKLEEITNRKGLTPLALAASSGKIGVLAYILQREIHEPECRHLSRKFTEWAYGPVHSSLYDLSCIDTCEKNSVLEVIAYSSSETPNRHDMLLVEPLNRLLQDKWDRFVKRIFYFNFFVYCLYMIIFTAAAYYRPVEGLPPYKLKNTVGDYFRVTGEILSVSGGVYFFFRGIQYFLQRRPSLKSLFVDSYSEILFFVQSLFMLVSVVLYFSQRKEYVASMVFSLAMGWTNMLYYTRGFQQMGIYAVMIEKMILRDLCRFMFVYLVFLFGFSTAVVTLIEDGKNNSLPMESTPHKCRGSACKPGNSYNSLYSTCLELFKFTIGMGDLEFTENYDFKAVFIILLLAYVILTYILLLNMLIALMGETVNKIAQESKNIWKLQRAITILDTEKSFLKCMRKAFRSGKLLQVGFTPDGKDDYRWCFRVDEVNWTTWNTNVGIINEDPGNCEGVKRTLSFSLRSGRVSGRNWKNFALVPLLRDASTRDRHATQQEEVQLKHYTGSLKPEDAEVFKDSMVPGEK
# T1 sequence (O35433 whole entry): as above
Compound,Ki [2],Activity [3],inhibition [4],Ki [5],EC50 [1]
COc1cc(CNC(=S)NC(CCc2ccc(C(C)(C)C)cc2)COC(=O)C(C)(C)C)ccc1O (configuration not stated),36.5 nM,–,–,–,21.5 nM
COc1cc(CNC(=S)NCC(COC(=O)C(C)(C)C)Cc2ccc(C(C)(C)C)cc2)cc(Cl)c1O (configuration not stated),21.3 nM,49%,37%,–,–
COc1cc(CNC(=S)NCc2ccc(C(C)(C)C)cc2)cc(Cl)c1O,76 nM,5%,92%,–,–
COc1cc(CNC(=S)NC(CCc2ccc(C(C)(C)C)cc2)COC(=O)C(C)(C)C)c(I)cc1O (configuration not stated),79 nM,–,–,69 nM,–
COc1cc(CNC(=S)NCC(COC(=O)C(C)(C)C)Cc2ccc(C)c(C)c2)cc(I)c1O (configuration not stated),232 nM,–,–,121 nM,–
COc1cc(CNC(=S)NCC(COC(=O)C(C)(C)C)Cc2ccc(C)c(C)c2)cc(Cl)c1O (configuration not stated),30.9 nM,93%,–,–,–
COc1cc(CNC(=S)NC(COC(=O)C(C)(C)C)Cc2ccc(C(C)(C)C)cc2)c(I)cc1O (configuration not stated),96 nM,–,–,310 nM,–
COc1cc(CNC(=S)NCc2ccc(C(C)(C)C)cc2)c(I)cc1O,130 nM,–,–,156 nM,–
COc1cc(CNC(=S)NC(CCc2ccc(C)c(C)c2)COC(=O)C(C)(C)C)c(Br)cc1O (configuration not stated),109 nM,13%,75%,–,–
COc1cc(CNC(=S)NC(CCc2ccc(C(C)(C)C)cc2)COC(=O)C(C)(C)C)cc(Cl)c1O (configuration not stated),122 nM,44%,47%,–,–
CCCCCCCCC(=O)NCc1cc(OC)c(O)cc1I,1320 nM,–,–,127 nM,–
COc1cc(CNC(=S)NC(CCc2ccc(C(C)(C)C)cc2)COC(=O)C(C)(C)C)cc(I)c1O (configuration not stated),214 nM,–,–,525 nM,–
COc1cc(CNC(=S)NC(CCc2ccc(C)c(C)c2)COC(=O)C(C)(C)C)c(I)cc1O (configuration not stated),140 nM,–,–,176 nM,–
COc1cc(CNC(=S)NCc2ccc(C(C)(C)C)cc2)cc(I)c1O,342 nM,–,–,176 nM,–
COc1cc(CNC(=S)NC(CCc2ccc(C(C)(C)C)cc2)COC(=O)C(C)(C)C)cc(Br)c1O (configuration not stated),143 nM,19%,73%,–,–
COc1cc(CNC(=S)NC(CCc2ccc(C(C)(C)C)cc2)COC(=O)C(C)(C)C)c(Br)cc1O (configuration not stated),75 nM,–,–,76.1 nM,–
COc1cc(CNC(=S)NC(CCc2ccc(C(C)(C)C)cc2)COC(=O)C(C)(C)C)c(Cl)cc1O (configuration not stated),79 nM,–,–,72.2 nM,–
COc1cc(CNC(=S)NC(CCc2ccc(C)c(C)c2)COC(=O)C(C)(C)C)cc(Cl)c1O (configuration not stated),86 nM,88%,16%,–,–
COc1cc(CNC(=S)NCC(COC(=O)C(C)(C)C)Cc2ccc(C)c(C)c2)cc(Br)c1O (configuration not stated),33.1 nM,29%,70%,–,–
COc1cc(CNC(=S)NC(CCc2ccc(C)c(C)c2)COC(=O)C(C)(C)C)c(Cl)cc1O (configuration not stated),103 nM,60%,45%,–,–
COc1cc(CNC(=S)NC(CCc2ccc(C)c(C)c2)COC(=O)C(C)(C)C)cc(Br)c1O (configuration not stated),102 nM,50%,59%,–,–
COc1cc(CNC(=S)NC(CCc2ccc(C)c(C)c2)COC(=O)C(C)(C)C)cc(I)c1O (configuration not stated),127 nM,–,–,115 nM,–
COc1cc(CNC(=S)NCc2ccc(C(C)(C)C)cc2)ccc1O,58.6 nM,–,–,–,2.5 nM

# The next lines start with results.
Ki [2],Activity [3],inhibition [4],Ki [5],Compound,EC50 [1]
18.9 nM,–,–,23.1 nM,COc1cc(CNC(=S)NCC(COC(=O)C(C)(C)C)Cc2ccc(C)c(C)c2)c(I)cc1O (configuration not stated),–
18.8 nM,9%,85%,–,COc1cc(CNC(=S)NCC(COC(=O)C(C)(C)C)Cc2ccc(C(C)(C)C)cc2)cc(Br)c1O (configuration not stated),–
24.2 nM,63%,41%,–,COc1cc(CNC(=S)NCC(COC(=O)C(C)(C)C)Cc2ccc(C)c(C)c2)c(Cl)cc1O (configuration not stated),–
38.2 nM,57%,29%,–,COc1cc(CNC(=S)NC(COC(=O)C(C)(C)C)Cc2ccc(C(C)(C)C)cc2)cc(Br)c1O (configuration not stated),–
39.4 nM,–,–,178 nM,COc1cc(CNC(=S)NC(COC(=O)C(C)(C)C)Cc2ccc(C(C)(C)C)cc2)cc(I)c1O (configuration not stated),–
36.9 nM,33%,81%,–,COc1cc(CNC(=S)NCc2ccc(C(C)(C)C)cc2)c(Cl)cc1O,–
12.8 nM,–,–,55 nM,COc1cc(CNC(=S)NCC(COC(=O)C(C)(C)C)Cc2ccc(C(C)(C)C)cc2)c(Br)cc1O (configuration not stated),–
42.1 nM,–,–,30.3 nM,COc1cc(CNC(=S)NCc2ccc(C(C)(C)C)cc2)c(Br)cc1O,–
28.8 nM,–,–,–,COc1cc(CNC(=S)NC(COC(=O)C(C)(C)C)Cc2ccc(C(C)(C)C)cc2)cc(Cl)c1O (configuration not stated),60 nM
12.2 nM,24%,71%,–,COc1cc(CNC(=S)NCC(COC(=O)C(C)(C)C)Cc2ccc(C(C)(C)C)cc2)c(Cl)cc1O (configuration not stated),–
41.5 nM,94%,11%,–,COc1cc(CNC(=S)NC(COC(=O)C(C)(C)C)Cc2ccc(C(C)(C)C)cc2)c(Cl)cc1O (configuration not stated),–
13.3 nM,–,–,71 nM,COc1cc(CNC(=S)NCC(COC(=O)C(C)(C)C)Cc2ccc(C(C)(C)C)cc2)c(I)cc1O (configuration not stated),–
56 nM,–,–,–,COc1cc(CNC(=S)NC(CCc2ccc(C)c(C)c2)COC(=O)C(C)(C)C)ccc1O (configuration not stated),14.7 nM
51.6 nM,–,–,49 nM,COc1cc(CNC(=S)NCc2ccc(C(C)(C)C)cc2)cc(Br)c1O,–
45 nM,–,–,103 nM,COc1cc(CNC(=S)NCC(COC(=O)C(C)(C)C)Cc2ccc(C(C)(C)C)cc2)cc(I)c1O (configuration not stated),–
74.9 nM,41%,51%,–,COc1cc(CNC(=S)NC(COC(=O)C(C)(C)C)Cc2ccc(C(C)(C)C)cc2)c(Br)cc1O (configuration not stated),–
19.9 nM,13%,91%,–,COc1cc(CNC(=S)NCC(COC(=O)C(C)(C)C)Cc2ccc(C)c(C)c2)c(Br)cc1O (configuration not stated),–

# — ChEMBL document CHEMBL1138378, “Halogenation of 4-hydroxy-3-methoxybenzyl thiourea TRPV1 agonists showed enhanced antagonism to capsaicin” (Bioorg Med Chem Lett, 2007)
